Data as given in ChEMBL document CHEMBL5346945, “Discovery and Optimization of the First ATP Competitive Type-III c-MET Inhibitor” (J Med Chem, 2023).

Key:
[1] = Metabolic stability in Han Wistar rat hepatocytes assessed as intrinsic clearance measured per million cells at 1 uM measured at 0.5 to 2 hrs by LC-MS/MS analysis; format: ADME, cell-based, Hepatocyte; settings: time 0.5-2 hrs, read-out: CLH
[2] = target: T1, Hepatocyte growth factor receptor (Homo sapiens, UniProt P08581); experiment: Binding affinity to wild type c-MET (unknown origin) assessed as dissociation constant measured for 120 sec by SPR analysis
T1 sequence (P08581 whole entry): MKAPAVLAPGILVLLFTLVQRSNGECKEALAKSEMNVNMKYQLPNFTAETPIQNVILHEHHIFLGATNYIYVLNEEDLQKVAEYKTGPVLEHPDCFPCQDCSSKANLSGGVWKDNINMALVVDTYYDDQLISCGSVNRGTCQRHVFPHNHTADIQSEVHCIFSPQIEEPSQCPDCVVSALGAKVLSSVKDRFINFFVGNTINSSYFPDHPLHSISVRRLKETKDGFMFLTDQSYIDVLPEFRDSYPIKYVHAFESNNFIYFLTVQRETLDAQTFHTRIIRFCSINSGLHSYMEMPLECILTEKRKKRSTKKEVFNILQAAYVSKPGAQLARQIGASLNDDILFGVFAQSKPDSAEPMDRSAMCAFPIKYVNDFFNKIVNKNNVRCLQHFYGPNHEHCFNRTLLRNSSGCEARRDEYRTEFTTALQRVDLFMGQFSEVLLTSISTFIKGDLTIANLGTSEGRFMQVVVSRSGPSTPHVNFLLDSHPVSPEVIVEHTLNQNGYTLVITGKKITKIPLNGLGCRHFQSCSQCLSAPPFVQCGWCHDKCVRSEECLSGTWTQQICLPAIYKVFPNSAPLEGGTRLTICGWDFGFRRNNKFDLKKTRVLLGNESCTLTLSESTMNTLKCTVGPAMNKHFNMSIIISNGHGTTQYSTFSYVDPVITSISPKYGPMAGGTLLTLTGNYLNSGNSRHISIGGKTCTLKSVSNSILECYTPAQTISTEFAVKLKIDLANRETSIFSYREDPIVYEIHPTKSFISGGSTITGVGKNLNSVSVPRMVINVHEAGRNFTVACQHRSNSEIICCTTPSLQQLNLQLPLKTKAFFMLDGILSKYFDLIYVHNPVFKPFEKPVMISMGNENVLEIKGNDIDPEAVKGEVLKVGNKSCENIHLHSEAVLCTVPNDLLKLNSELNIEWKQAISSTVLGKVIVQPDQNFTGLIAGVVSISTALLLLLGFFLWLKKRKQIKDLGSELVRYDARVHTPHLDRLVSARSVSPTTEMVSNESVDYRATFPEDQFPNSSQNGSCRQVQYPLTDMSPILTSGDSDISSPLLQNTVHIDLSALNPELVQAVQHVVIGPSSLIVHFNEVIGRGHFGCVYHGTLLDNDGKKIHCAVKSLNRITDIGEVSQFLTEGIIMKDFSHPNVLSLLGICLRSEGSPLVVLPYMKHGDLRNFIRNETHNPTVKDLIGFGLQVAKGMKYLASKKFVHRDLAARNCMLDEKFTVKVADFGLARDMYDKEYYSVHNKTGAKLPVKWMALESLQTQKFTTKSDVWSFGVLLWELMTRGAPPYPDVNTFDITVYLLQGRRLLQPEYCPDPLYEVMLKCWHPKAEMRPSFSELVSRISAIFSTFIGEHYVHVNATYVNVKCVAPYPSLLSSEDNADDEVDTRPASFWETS

[3] = Lipophilicity, logD of compound in octanol and water at pH 7.4 measured by shake-flask method; format: physicochemical
[4] = Metabolic stability in human liver microsomes assessed as intrinsic clearance at 1 uM preincubated with NADPH for 8 mins followed by compound addition measured at 0.5 to 30 mins by LC-MS/MS analysis; format: ADME, Microsome; settings: time 0.5-30 min, read-out: CLH
[5] = target: T1, Hepatocyte growth factor receptor; experiment: Inhibition of wild type c-MET (unknown origin) using ATP and poly(L-glutamic acid-L-tyrosine) as substrate incubated for 60 mins measured by ADP-Glo kinase assay
[6] = target: T1, Hepatocyte growth factor receptor; experiment: Inhibition of wild type c-MET in human NCI-H1993 cells incubated for 4 hrs measured by HTRF assay; format: cell-based
[7] = target: Tyrosine-protein kinase receptor UFO (Homo sapiens) (UniProt P30530); settings: dose 100.0 nM
Tyrosine-protein kinase receptor UFO (Homo sapiens), sequence (P30530 whole entry): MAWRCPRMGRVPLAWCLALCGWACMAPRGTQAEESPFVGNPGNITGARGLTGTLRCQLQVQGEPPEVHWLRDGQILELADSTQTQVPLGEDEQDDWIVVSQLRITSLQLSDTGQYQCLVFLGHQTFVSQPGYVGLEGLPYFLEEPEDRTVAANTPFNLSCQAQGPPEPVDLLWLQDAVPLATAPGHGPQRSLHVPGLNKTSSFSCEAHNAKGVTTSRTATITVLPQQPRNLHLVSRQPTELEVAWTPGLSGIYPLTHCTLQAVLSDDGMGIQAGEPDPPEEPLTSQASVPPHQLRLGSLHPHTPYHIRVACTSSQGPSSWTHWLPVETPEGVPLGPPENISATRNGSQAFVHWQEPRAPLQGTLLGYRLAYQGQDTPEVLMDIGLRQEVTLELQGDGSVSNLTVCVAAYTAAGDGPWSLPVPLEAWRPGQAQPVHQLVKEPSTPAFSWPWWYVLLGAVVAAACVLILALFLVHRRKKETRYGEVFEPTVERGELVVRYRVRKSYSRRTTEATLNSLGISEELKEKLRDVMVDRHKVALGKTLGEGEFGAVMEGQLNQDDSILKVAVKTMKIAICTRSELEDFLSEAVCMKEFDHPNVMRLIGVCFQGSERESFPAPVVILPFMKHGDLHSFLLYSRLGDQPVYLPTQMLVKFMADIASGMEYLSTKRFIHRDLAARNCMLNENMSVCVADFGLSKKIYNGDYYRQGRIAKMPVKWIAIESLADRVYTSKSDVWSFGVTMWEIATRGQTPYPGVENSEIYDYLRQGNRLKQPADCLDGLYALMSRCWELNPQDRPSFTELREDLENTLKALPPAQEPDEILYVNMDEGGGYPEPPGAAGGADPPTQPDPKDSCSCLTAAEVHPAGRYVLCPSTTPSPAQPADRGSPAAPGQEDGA
Description: Inhibition of AXL (unknown origin) at 100 nM relative to control

[8] = target: T1, Hepatocyte growth factor receptor; settings: dose 100.0 nM
Description: Inhibition of c-MET (unknown origin) at 100 nM relative to control

[9] = target: T2, Tyrosine-protein kinase Mer (Homo sapiens) (UniProt Q12866); settings: dose 100.0 nM
T2 sequence (whole entry): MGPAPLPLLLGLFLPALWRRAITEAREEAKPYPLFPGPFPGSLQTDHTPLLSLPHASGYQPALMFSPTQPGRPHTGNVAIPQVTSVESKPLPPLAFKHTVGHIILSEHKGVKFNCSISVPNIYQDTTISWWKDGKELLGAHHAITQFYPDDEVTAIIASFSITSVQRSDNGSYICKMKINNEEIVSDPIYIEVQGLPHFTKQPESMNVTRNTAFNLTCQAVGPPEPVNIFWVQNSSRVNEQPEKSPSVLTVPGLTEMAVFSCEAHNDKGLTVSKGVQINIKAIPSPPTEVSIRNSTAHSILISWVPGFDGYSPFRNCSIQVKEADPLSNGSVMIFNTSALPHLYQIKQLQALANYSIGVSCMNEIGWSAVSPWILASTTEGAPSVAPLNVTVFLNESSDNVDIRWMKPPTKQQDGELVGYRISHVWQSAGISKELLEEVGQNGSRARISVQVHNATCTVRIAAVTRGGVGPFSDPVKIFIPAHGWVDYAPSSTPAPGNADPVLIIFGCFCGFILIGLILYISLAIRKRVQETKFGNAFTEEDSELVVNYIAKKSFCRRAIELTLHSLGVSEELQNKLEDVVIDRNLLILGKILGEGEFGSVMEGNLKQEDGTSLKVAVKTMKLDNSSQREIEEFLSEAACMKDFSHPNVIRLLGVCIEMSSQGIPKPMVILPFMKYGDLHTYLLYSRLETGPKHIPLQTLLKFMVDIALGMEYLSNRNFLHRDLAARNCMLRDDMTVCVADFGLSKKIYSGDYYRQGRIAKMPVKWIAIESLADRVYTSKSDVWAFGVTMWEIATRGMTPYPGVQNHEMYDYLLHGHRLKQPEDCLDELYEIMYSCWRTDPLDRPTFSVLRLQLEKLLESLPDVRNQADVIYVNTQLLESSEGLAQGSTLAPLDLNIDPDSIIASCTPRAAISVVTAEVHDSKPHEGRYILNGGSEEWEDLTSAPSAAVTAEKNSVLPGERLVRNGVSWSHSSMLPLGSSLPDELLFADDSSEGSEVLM
Description: Inhibition of MERTK (unknown origin) at 100 nM relative to control

[10] = target: Macrophage-stimulating protein receptor (Homo sapiens) (UniProt Q04912); settings: dose 100.0 nM
Macrophage-stimulating protein receptor (Homo sapiens), sequence (Q04912 25-304 limits assumed): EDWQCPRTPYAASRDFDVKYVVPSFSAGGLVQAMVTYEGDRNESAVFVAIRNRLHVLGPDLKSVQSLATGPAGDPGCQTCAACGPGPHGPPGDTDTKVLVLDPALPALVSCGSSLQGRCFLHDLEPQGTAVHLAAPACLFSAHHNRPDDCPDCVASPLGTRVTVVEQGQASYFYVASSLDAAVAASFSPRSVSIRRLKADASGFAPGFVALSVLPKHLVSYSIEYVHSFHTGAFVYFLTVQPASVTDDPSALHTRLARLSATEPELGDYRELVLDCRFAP
Macrophage-stimulating protein receptor (Homo sapiens), sequence (Q04912 310-1400 limits assumed): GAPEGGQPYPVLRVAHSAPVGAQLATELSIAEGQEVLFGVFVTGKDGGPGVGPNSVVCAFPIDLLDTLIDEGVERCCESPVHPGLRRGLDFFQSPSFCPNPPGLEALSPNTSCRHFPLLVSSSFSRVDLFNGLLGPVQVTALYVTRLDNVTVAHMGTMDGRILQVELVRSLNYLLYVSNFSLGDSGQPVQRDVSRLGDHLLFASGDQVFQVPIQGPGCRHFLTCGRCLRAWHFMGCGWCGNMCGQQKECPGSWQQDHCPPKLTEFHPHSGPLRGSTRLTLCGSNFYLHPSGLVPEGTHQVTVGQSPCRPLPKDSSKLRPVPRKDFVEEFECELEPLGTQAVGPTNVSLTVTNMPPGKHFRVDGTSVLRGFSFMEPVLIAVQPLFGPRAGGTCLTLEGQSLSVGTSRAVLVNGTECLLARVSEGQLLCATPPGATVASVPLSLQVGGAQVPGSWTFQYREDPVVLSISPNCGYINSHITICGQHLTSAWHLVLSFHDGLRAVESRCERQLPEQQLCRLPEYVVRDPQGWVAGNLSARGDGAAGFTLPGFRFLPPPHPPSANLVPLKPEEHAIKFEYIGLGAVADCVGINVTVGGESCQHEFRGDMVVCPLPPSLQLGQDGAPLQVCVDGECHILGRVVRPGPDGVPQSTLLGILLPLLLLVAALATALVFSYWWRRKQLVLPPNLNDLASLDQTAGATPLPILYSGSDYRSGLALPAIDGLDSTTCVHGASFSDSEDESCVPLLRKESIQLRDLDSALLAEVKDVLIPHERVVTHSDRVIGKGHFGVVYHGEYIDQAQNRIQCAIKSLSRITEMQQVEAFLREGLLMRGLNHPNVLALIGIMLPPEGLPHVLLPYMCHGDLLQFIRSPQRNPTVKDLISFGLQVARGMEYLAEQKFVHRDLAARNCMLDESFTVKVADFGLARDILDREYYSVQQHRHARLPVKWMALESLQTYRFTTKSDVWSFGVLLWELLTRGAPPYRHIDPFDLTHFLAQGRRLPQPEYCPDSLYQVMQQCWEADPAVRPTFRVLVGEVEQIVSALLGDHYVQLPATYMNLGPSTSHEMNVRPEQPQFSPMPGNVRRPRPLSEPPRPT
Description: Inhibition of MST1R (unknown origin) at 100 nM relative to control

[11] = Permeability across basolateral to apical side in MDCK cells at 10 uM by LC-MS/MS analysis; format: ADME, cell-based, Canis lupus familiaris; settings: dog, read-out: permeability
[12] = Metabolic stability in human hepatocytes assessed as intrinsic clearance measured per million cells at 1 uM measured at 0.5 to 2 hrs by LC-MS/MS analysis; format: ADME, cell-based, Hepatocyte; settings: time 0.5-2 hrs, read-out: CLH
[13] = Oral bioavailability in Han Wistar rat plasma at 1 mg/kg, measured for 1 to 24 hrs by LC-MS/MS analysis; format: ADME, organism-based; settings: in vivo, time 1-24 hrs
[14] = Volume of distribution at steady state in Han Wistar rat plasma at 1 mg/kg, po or 0.5 mg/kg, iv measured for 1 to 24 hrs by LC-MS/MS analysis; format: ADME, organism-based; settings: in vivo, time 1-24 hrs
[15] = Ratio of drug concentration in brain to plasma of Han Wistar rat plasma at 2 micromol/kg per hour measured after 4 hrs by LC-MS/MS analysis; format: ADME; settings: dose 2 µmol/kg

Compound	hepatocyte CLint at 1 µM [1] [µL/min/1e6 cells]	Kd [2] [nM]	logD [3]	microsomal CLint at 1 µM [4] [µL/min/mg]	IC50 [5] [nM]	also measured
O=c1[nH]c(=O)n(Cc2ccccc2)cc1-c1cc(F)cc(F)c1	76.7	> 100000	3	20.6		
Cc1n[nH]c2c(-c3cn(C(C)c4ccccc4)c(=O)[nH]c3=O)cccc12 (stereo not drawn)	37	180	2.7	17.8	430	
CC(c1ccc(F)cc1)n1cc(-c2cc(F)cc(F)c2)c(=O)[nH]c1=O (stereo not drawn)	26.8	1200		17.4		
CC(c1ccccc1)n1cc(-c2cc(F)cc3c(C#N)n[nH]c23)c(=O)[nH]c1=O (stereo not drawn)	51.4	87	3.1	11.4	130	
C#Cc1n[nH]c2c(-c3cn([C@@H](C)c4ccccc4)c(=O)[nH]c3=O)cc(F)cc12	15		3.4	< 3	13	EC50 [6]: 1170 nM; inhibition [7]: < 50%; inhibition [8]: 80%; inhibition [9]: 80%; inhibition [10]: < 50%
CC(c1ccc(F)cc1)n1cc(-c2cc(F)cc3c(C#N)n[nH]c23)c(=O)[nH]c1=O (stereo not drawn)	4.4		3.2	< 3	310	EC50 [6]: 18700 nM
CC(c1cccc(-c2cc[nH]n2)c1)n1cc(-c2cc(F)cc(F)c2)c(=O)[nH]c1=O (stereo not drawn)	24.7	2600	3.5	5.04		
CC(c1cccc(Cl)c1)n1cc(-c2cc(F)cc(F)c2)c(=O)[nH]c1=O (stereo not drawn)	177	1000	3.8	27.4		
CC(c1ccccc1Cl)n1cc(-c2cc(F)cc(F)c2)c(=O)[nH]c1=O (stereo not drawn)	227	36000	3.6	38.3		
CC(c1ccccn1)n1cc(-c2cc(F)cc3c(C#N)n[nH]c23)c(=O)[nH]c1=O (stereo not drawn)	3.08		2.1	< 3	1200	EC50 [6]: > 29800 nM
CC(c1ccccc1)n1cc(-c2c(F)ccc3cn[nH]c23)c(=O)[nH]c1=O (stereo not drawn)	28.3	440	2.5	7.35	2200	
CC(c1cccc(-c2c[nH]cn2)c1)n1cc(-c2cccc3cn[nH]c23)c(=O)[nH]c1=O (stereo not drawn)	5.84	460	2.3	8.92		
CC(c1ccccc1)n1cc(-c2cccc3cn[nH]c23)c(=O)[nH]c1=O (stereo not drawn)	46.1	240	2.4	6.13	1300	
C[C@@H](c1ccc(F)cc1)n1cc(-c2cc(F)cc3cn[nH]c23)c(=O)[nH]c1=O			2.8		150	Papp B→A at 10 µM [11]: 22.4 ×10⁻⁶ cm/s; hepatocyte CLint at 1 µM [12]: 1.81 µL/min/1e6 cells; F [13]: 57%; Vdss [14]: 4.3 L/kg; K(p,uu,brain) [15]: 0.11
CC(c1ccccc1)n1cc(-c2ncccn2)c(=O)[nH]c1=O (stereo not drawn)	4.67	2700	0.85	< 3		
